Measured values taken from ChEMBL document CHEMBL3997842, “Discovery of novel BTK inhibitors with carboxylic acids” (Bioorg Med Chem Lett, 2017).

Tests used:
[1] = molecular target: T1, Tyrosine-protein kinase BTK (Homo sapiens, UniProt Q06187); experiment: Inhibition of 6-His-tagged recombinant full length BTK (unknown origin) expressed in baculovirus-transfected Sf9 cells using Biotin-EQEDEPEGDYFEWLE-NH2 as substrate preincubated for 60 mins followed by substrate addition measured after 120 mins by LANCE TR-FRET assay
T1 sequence (Q06187 whole entry): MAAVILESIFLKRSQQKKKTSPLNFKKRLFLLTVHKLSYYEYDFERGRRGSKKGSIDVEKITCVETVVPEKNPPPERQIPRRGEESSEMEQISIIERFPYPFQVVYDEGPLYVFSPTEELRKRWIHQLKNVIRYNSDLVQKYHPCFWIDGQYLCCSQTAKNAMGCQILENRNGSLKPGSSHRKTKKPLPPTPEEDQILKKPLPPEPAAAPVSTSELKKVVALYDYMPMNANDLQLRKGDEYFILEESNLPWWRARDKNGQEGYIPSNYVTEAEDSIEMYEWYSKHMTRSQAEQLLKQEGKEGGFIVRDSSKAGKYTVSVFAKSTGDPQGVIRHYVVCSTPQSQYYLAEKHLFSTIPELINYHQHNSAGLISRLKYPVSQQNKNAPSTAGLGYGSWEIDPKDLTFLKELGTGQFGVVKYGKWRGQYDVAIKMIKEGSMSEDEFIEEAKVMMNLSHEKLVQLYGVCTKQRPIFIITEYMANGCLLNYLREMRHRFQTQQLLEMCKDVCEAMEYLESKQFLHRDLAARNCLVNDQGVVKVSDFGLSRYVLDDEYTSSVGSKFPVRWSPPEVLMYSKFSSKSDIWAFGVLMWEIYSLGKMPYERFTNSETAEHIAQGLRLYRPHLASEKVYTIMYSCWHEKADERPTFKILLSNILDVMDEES

[2] = molecular target: T1, Tyrosine-protein kinase BTK; experiment: Inhibition of BTK in human PBMC
[3] = test system: HeLa; experiment: Inhibition of [3H]-adenosine uptake in human HeLa cells preincubated for 30 mins followed by [3H]-adenosine addition measured after 60 mins by PMT-based radiometric detection method; assay type: cell-based; conditions: 1 h
[4] = Apparent permeability of the compound; assay type: physicochemical; conditions: not told
[5] = Oral bioavailability in rat; assay type: ADME, organism-based; conditions: in vivo
[6] = molecular target: Voltage-dependent L-type calcium channel subunit alpha-1C (Homo sapiens, UniProt Q13936); experiment: Inhibition of Cav1.2 (unknown origin)
[7] = molecular target: Sodium channel protein type 5 subunit alpha (Homo sapiens, UniProt Q14524); experiment: Inhibition of Nav1.5 (unknown origin)
Chain of Sodium channel protein type 5 subunit alpha (Q14524 whole entry): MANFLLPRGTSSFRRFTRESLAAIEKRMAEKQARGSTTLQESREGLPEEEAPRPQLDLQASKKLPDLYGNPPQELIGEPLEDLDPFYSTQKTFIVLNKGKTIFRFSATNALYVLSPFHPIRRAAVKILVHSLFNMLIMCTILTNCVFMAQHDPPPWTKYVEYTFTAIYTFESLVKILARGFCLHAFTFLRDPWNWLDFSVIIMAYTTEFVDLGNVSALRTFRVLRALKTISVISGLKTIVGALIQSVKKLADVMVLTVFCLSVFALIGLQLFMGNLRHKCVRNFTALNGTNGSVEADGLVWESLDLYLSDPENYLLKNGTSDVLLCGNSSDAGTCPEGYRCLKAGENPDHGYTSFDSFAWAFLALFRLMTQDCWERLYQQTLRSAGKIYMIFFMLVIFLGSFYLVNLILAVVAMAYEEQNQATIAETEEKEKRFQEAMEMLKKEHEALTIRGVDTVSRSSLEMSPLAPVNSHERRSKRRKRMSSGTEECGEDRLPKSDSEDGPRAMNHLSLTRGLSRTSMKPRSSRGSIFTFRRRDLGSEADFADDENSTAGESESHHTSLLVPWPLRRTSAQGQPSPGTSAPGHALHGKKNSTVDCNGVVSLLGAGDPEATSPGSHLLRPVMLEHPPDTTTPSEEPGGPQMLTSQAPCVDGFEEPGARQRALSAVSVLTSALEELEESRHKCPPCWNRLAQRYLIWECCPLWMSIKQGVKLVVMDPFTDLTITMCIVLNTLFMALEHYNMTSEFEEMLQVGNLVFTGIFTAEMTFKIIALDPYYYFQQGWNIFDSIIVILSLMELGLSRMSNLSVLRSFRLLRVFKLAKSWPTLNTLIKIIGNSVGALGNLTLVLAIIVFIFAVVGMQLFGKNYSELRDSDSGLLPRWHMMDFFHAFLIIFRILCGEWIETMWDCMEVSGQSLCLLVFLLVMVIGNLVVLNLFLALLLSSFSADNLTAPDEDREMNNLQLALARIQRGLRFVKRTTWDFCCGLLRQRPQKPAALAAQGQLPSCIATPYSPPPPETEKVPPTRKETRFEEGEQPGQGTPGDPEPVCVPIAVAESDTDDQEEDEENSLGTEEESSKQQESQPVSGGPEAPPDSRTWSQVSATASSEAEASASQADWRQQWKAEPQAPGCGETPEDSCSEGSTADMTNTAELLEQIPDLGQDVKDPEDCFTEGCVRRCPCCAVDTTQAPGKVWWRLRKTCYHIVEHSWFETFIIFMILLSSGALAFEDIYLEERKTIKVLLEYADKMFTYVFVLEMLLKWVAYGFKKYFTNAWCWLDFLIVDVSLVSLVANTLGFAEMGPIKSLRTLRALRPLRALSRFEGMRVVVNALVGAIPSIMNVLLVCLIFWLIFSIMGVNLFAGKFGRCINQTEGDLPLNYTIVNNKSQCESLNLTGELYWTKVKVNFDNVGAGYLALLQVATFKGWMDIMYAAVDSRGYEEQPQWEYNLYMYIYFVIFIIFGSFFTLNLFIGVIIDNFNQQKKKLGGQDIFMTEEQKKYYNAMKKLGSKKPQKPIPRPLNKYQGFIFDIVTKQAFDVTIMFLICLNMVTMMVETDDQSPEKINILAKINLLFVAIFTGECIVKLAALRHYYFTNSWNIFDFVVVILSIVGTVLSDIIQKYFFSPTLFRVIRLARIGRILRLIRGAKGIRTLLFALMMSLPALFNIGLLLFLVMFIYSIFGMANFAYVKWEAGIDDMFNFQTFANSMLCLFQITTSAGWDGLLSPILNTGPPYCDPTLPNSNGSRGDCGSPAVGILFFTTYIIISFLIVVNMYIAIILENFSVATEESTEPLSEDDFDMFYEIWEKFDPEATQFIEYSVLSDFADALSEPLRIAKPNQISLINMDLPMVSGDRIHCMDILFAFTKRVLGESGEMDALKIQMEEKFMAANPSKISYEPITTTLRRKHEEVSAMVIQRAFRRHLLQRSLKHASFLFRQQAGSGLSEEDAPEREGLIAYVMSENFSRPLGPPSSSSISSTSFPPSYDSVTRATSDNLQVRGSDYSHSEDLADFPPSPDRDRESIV

[8] = Clearance in iv dosed rat; assay type: ADME, organism-based; conditions: in vivo
[9] = Unbound fraction in rat; assay type: ADME
[10] = Half life in iv dosed rat; assay type: ADME, organism-based; conditions: in vivo
[11] = molecular target: Voltage-gated inwardly rectifying potassium channel KCNH2 (Homo sapiens, UniProt Q12809); experiment: Inhibition of human ERG
Chain of Voltage-gated inwardly rectifying potassium channel KCNH2 (Q12809 whole entry): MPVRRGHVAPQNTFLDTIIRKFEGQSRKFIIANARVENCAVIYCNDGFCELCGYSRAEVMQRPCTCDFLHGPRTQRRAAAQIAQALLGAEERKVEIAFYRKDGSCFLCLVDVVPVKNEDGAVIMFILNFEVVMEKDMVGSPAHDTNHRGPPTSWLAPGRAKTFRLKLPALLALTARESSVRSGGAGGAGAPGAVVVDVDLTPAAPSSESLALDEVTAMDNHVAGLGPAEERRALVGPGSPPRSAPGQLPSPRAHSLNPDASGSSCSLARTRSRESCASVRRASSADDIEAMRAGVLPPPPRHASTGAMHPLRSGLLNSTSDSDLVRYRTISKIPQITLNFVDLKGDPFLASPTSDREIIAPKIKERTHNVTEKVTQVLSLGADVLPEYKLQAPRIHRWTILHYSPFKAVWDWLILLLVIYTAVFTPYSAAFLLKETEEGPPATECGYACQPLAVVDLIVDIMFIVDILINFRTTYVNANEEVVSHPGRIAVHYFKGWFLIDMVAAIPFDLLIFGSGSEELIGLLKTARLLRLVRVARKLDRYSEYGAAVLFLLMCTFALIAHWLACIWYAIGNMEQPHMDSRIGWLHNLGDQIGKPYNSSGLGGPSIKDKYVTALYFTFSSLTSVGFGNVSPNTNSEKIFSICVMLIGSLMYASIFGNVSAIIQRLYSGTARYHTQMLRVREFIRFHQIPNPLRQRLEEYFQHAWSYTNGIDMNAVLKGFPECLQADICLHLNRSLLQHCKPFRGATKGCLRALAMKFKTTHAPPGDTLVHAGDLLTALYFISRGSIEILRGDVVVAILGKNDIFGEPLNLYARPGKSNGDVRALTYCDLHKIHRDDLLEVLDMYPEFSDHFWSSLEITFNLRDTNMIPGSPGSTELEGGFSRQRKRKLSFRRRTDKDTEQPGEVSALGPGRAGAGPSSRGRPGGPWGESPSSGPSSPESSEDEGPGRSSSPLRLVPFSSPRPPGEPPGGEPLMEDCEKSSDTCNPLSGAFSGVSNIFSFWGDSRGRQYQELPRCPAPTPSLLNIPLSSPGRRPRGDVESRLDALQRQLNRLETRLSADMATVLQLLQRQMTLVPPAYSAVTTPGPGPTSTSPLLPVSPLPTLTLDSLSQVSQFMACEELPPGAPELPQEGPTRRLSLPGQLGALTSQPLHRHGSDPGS

[12] = Clearance in iv dosed dog; assay type: ADME, organism-based, Canis lupus familiaris; conditions: in vivo
[13] = Half life in iv dosed dog; assay type: ADME, organism-based, Canis lupus familiaris; conditions: in vivo
[14] = Oral bioavailability in dog; assay type: ADME, organism-based, Canis lupus familiaris; conditions: in vivo
[15] = Plasma clearance in rat; assay type: ADME
[16] = Half life in rat; assay type: ADME; conditions: in vivo

Structure (SMILES): Nc1nccn2c(C34CCC(C(=O)O)(CC3)CC4)nc(-c3ccc(C(=O)Nc4cc(C(F)(F)F)ccn4)cc3)c12
- IC50 [1]: 0.2 nM
- IC50 [2]: 5 nM
- Inhibitory concentration [3]: 308 nM

Structure (SMILES): Nc1nccn2c([C@@H]3CCC[C@H](c4n[nH]c(=O)o4)C3)nc(-c3ccc(C(=O)Nc4cc(C(F)(F)F)ccn4)cc3)c12
- Inhibitory concentration [3]: 44 nM

Structure (SMILES): Nc1nccn2c([C@@H]3CCC[C@H](c4nn[nH]n4)C3)nc(-c3ccc(C(=O)Nc4cc(C(F)(F)F)ccn4)cc3)c12
- Inhibitory concentration [3]: > 10000 nM
- Papp [4]: 3 ×10⁻⁶ cm/s

Structure (SMILES): Nc1nccn2c1c(-c1ccc(C(=O)Nc3cc(C(F)(F)F)ccn3)cc1)nc2[C@]12CC[C@](C(=O)O)(CC1)C2
- IC50 [1]: 0.2 nM
- IC50 [2]: 9 nM
- Inhibitory concentration [3]: 459 nM

Structure (SMILES): C[C@]1(C(=O)O)CC[C@@](C)(c2nc(-c3ccc(C(=O)Nc4cc(C(F)(F)F)ccn4)cc3)c3c(N)nccn23)C1
- IC50 [1]: 0.2 nM
- IC50 [2]: 8 nM
- bioavailability [5]: 39%
- IC50 [6]: 19000 nM
- IC50 [7]: > 30000 nM
- clearance [8]: 2 mL/min/kg
- Inhibitory concentration [3]: 1699 nM
- fraction unbound [9]: 0.001
- half-life [10]: 2.4 h

Structure (SMILES): NC(=O)[C@H]1CCC[C@@H](c2nc(-c3ccc(C(=O)Nc4cc(C(F)(F)F)ccn4)cc3)c3c(N)nccn23)C1
- Inhibitory concentration [3]: 45 nM

Structure (SMILES): Nc1nccn2c1c(-c1ccc(C(=O)Nc3cc(C(F)(F)F)ccn3)cc1)nc2[C@H]1CC[C@@H](C(=O)O)CC1
- Inhibitory concentration [3]: > 10000 nM

Structure (SMILES): C[C@]1(C(=O)O)CCC[C@@](C)(c2nc(-c3ccc(C(=O)Nc4cc(C(F)(F)F)ccn4)cc3)c3c(N)nccn23)C1
- IC50 [1]: 0.1 nM
- IC50 [2]: 18 nM
- bioavailability [5]: 22%
- IC50 [6]: 13000 nM
- IC50 [7]: > 30000 nM
- clearance [8]: 9 mL/min/kg
- Inhibitory concentration [3]: 6073 nM
- fraction unbound [9]: 0.002
- half-life [10]: 3 h

Structure (SMILES): Nc1nccn2c(C34C5C6C3C3C4C5C63C(=O)O)nc(-c3ccc(C(=O)Nc4cc(C(F)(F)F)ccn4)cc3F)c12 (stereo unspecified)
- Inhibitory concentration [3]: 812 nM

Structure (SMILES): C[C@]1(C(=O)O)CC[C@@](C)(c2nc(-c3ccc(C(=O)Nc4cc(C(F)(F)F)ccn4)cc3)c3c(N)nccn32)CC1
- IC50 [1]: 1 nM
- IC50 [2]: 17 nM
- bioavailability [5]: 75%
- IC50 [11]: > 60000 nM
- IC50 [6]: 15000 nM
- IC50 [7]: > 30000 nM
- clearance [8]: 13 mL/min/kg
- Inhibitory concentration [3]: 1452 nM
- fraction unbound [9]: 0.001
- half-life [10]: 5 h
- clearance [12]: 13 mL/min/kg
- half-life [13]: 5.8 h
- bioavailability [14]: 77%

Structure (SMILES): Nc1nccn2c1c(-c1ccc(C(=O)Nc3cc(C(F)(F)F)ccn3)cc1)nc2[C@]12CCC[C@](C(=O)O)(CC1)CC2
- IC50 [1]: 0.3 nM
- IC50 [2]: 6 nM
- Inhibitory concentration [3]: 274 nM

Structure (SMILES): Cn1nnnc1[C@H]1CCC[C@@H](c2nc(-c3ccc(C(=O)Nc4cc(C(F)(F)F)ccn4)cc3)c3c(N)nccn23)C1
- Inhibitory concentration [3]: 155 nM
- Papp [4]: 26 ×10⁻⁶ cm/s

Structure (SMILES): Cn1nnc([C@H]2CCC[C@@H](c3nc(-c4ccc(C(=O)Nc5cc(C(F)(F)F)ccn5)cc4)c4c(N)nccn34)C2)n1
- Inhibitory concentration [3]: 150 nM
- Papp [4]: 28 ×10⁻⁶ cm/s

Structure (SMILES): C[C@]1(C(=O)O)CC[C@@H](c2nc(-c3ccc(C(=O)Nc4cc(C(F)(F)F)ccn4)cc3)c3c(N)nccn23)C1
- Inhibitory concentration [3]: 5396 nM

Structure (SMILES): Nc1nccn2c([C@@H]3CCC[C@H](C(=O)O)C3)nc(-c3ccc(C(=O)Nc4cc(C(F)(F)F)ccn4)cc3)c12
- clearance [15]: 7.9 mL/min/kg
- half-life [16]: 1.2 h
- bioavailability [5]: 2%
- IC50 [11]: > 60000 nM
- IC50 [6]: > 30000 nM
- IC50 [7]: > 30000 nM
- Papp [4]: 7 ×10⁻⁶ cm/s

Structure (SMILES): Nc1nccn2c(C34CC(C(=O)O)(C3)C4)nc(-c3ccc(C(=O)Nc4cc(C(F)(F)F)ccn4)cc3)c12
- IC50 [1]: 0.4 nM
- IC50 [2]: 67 nM
- Inhibitory concentration [3]: 6476 nM

Structure (SMILES): Nc1nccn2c([C@@H]3CCC[C@H](c4noc(=O)[nH]4)C3)nc(-c3ccc(C(=O)Nc4cc(C(F)(F)F)ccn4)cc3)c12
- Inhibitory concentration [3]: 9086 nM

Structure (SMILES): CC1(C(=O)O)CCC(c2nc(-c3ccc(C(=O)Nc4cc(C(F)(F)F)ccn4)cc3)c3c(N)nccn23)CC1 (stereo unspecified)
- Inhibitory concentration [3]: 2492 nM

Structure (SMILES): CC(C)[C@@]1(C(=O)O)CC[C@@](C)(c2nc(-c3ccc(C(=O)Nc4cc(C(F)(F)F)ccn4)cc3)c3c(N)nccn23)C1
- IC50 [1]: 0.4 nM
- IC50 [2]: 20 nM
- bioavailability [5]: 44%
- IC50 [11]: > 60000 nM
- IC50 [6]: 8000 nM
- IC50 [7]: > 30000 nM
- clearance [8]: 2.8 mL/min/kg
- Inhibitory concentration [3]: 4010 nM
- fraction unbound [9]: 0.003
- half-life [10]: 2 h

Structure (SMILES): CCOc1cc(C(=O)Nc2cc(C(F)(F)F)ccn2)ccc1-c1nc(C23CCC(C(=O)O)(CC2)CC3)n2ccnc(N)c12
- clearance [15]: 139 mL/min/kg
- half-life [16]: 0.8 h
- bioavailability [5]: 30%
- IC50 [6]: 15000 nM
- IC50 [7]: > 30000 nM

Structure (SMILES): Nc1nccn2c([C@H]3C[C@@H]4[C@H](C3)[C@H]4C(=O)O)nc(-c3ccc(C(=O)Nc4cc(C(F)(F)F)ccn4)cc3)c12
- Inhibitory concentration [3]: 1927 nM

Structure (SMILES): Nc1nccn2c1c(-c1ccc(C(=O)Nc3cc(C(F)(F)F)ccn3)cc1)nc2[C@H]1CC[C@H](C(=O)O)CC1
- Inhibitory concentration [3]: > 10000 nM

Structure (SMILES): Nc1nccn2c([C@@H]3CCC[C@H](c4nnc[nH]4)C3)nc(-c3ccc(C(=O)Nc4cc(C(F)(F)F)ccn4)cc3)c12
- Inhibitory concentration [3]: 168 nM
- Papp [4]: 20 ×10⁻⁶ cm/s

Structure (SMILES): C[C@H]1CC[C@@H](c2nc(-c3ccc(C(=O)Nc4cc(C(F)(F)F)ccn4)cc3F)c3c(N)nccn23)CN1C(=O)C1CC1
- Inhibitory concentration [3]: 110 nM

Structure (SMILES): CS(=O)(=O)NC(=O)[C@H]1CCC[C@@H](c2nc(-c3ccc(C(=O)Nc4cc(C(F)(F)F)ccn4)cc3)c3c(N)nccn23)C1
- Inhibitory concentration [3]: 5600 nM
- Papp [4]: 2 ×10⁻⁶ cm/s

Structure (SMILES): C[C@]1(C(=O)O)CCC[C@@H](c2nc(-c3ccc(C(=O)Nc4cc(C(F)(F)F)ccn4)cc3)c3c(N)nccn23)C1 (racemic)
- fraction unbound [9]: 0.002
